Data as given in patent US12503452B2 (Curza Global, LLC, priority 2019, dated 2025).
Structures can show the parent of a compound that is named as a salt. Where two headings read alike, the source gives them in different places.

How the values were obtained:
[1] = system: S. aureus (Sa); test: Broth microdilution minimum inhibitory concentration (MIC); assay type: cell-based; conditions: for MIC: Staphylococcus aureus, read-out: Sa + bicarb MIC
Method in brief: (§1)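 CLSI broth microdilution (M07-A9, slightly modified) in CAMHB, optionally with 6.25 or 25 mM sodium bicarbonate or 0–50% heat-inactivated human serum. Two-fold serial dilutions (8 concentrations, triplicate) were inoculated at 5×10^4 CFU/well from 0.5 McFarland cultures grown at 35±2 °C.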

[2] = system: E. faecalis (Ef); test: as above; assay type: cell-based; conditions: for MIC: Enterococcus faecalis, read-out: Ef + bicarb MIC
Method in brief: as §1

[3] = system: A. baumannii (Ab); test: as above; assay type: cell-based; conditions: for MIC: Acinetobacter baumannii, read-out: Ab + bicarb MIC
Method in brief: as §1

[4] = system: E. coli (Ec); test: as above; assay type: cell-based; conditions: for MIC: Escherichia coli, read-out: E. coli + bicarb MIC
Method in brief: as §1

[5] = system: P. aeruginosa (Pa); test: as above; assay type: cell-based; conditions: for MIC: Pseudomonas aeruginosa, read-out: Pa MIC + bicarb
Method in brief: as §1

[6] = target: Rabbit Reticulocyte Lysate (eukaryotic protein synthesis); test: Rabbit reticulocyte lysate luciferase assay (inhibition of eukaryotic protein synthesis); assay type: biochemical; conditions: read-out: Rabbit reticulocyte IC50 (μM/% inhib.)
Method in brief: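 Nuclease-treated rabbit reticulocyte lysate translating luciferase control RNA, with complete amino acids, was incubated at 30° C. for 90 minutes with 2-fold serial compound dilutions. Luminescence was measured after adding luciferase reagent. % inhibition was relative to water controls, with no-RNA wells as background.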

[7] = system: E. coli S30 extract (bacterial protein synthesis); test: E. coli S30 extract coupled transcription-translation luciferase assay (inhibition of bacterial protein synthesis); assay type: biochemical; conditions: read-out: S30 IC50 (μM/% inhib.)
Method in brief: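 Cell-free coupled transcription-translation in E. coli S30 circular-DNA extract, with pBESTluc plasmid as template and complete amino acid mix. Eight 2-fold compound dilutions were incubated with the extract 1 h at 37 °C, chilled, then luciferase luminescence was read. % inhibition was taken relative to no-inhibitor wells; no-DNA wells gave background.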

[8] = S. aureus, growth medium with sodium bicarbonate
[9] = E. faecalis, growth medium with sodium bicarbonate
[10] = A. baumannii, growth medium with sodium bicarbonate
[11] = E. coli, growth medium with sodium bicarbonate
[12] = P. aeruginosa, growth medium with sodium bicarbonate
[13] = class by IC50 or % inhibition @ 1 μM
[14] = S. aureus, growth medium supplemented with sodium bicarbonate
[15] = E. faecalis, growth medium supplemented with sodium bicarbonate
[16] = A. baumannii, growth medium supplemented with sodium bicarbonate
[17] = E. coli, growth medium supplemented with sodium bicarbonate
[18] = P. aeruginosa, growth medium supplemented with sodium bicarbonate

| SMILES | MIC [1, 8] [µg/mL] | MIC [2, 9] [µg/mL] | MIC [3, 10] [µg/mL] | MIC [4, 11] [µg/mL] | MIC [5, 12] [µg/mL] | IC50 [6, 13] [µM] | IC50 [7, 13] [µM] | MIC [1, 14] [µg/mL] | MIC [2, 15] [µg/mL] | MIC [3, 16] [µg/mL] | MIC [4, 17] [µg/mL] | MIC [5, 18] [µg/mL] | other results |
| --- | --- | --- | --- | --- | --- | --- | --- | --- | --- | --- | --- | --- | --- |
| CN(CCc1ccc(-n2ccc(NC(=O)N3CCN(C(=O)C(C)(C)N)CC3)nc2=O)cc1)[C@H]1CC[C@@H](CN)C1 (stereo in doubt) [Compound 178] | 8 to 32 | > 32 | > 32 | < 8 | > 32 | > 1 | > 1 |  |  |  |  |  |  |
| CC(COc1ccc(-n2ccc(NC(=O)N3CCN(C(=O)C(C)(C)N)CC3)nc2=O)cc1)N1CC[C@@H](CN)C1 (stereo partly shown) [Compound 186] | < 8 | 8 to 32 | > 32 | < 8 | > 32 | > 1 | < 0.5 |  |  |  |  |  |  |
| COc1cc(-n2ccc(NC(=O)N3CCN(C(=O)C(C)(C)N)CC3)nc2=O)ccc1CN(CC1CC1)C1CCC(N)CC1 (stereo not shown) [Compound 317, hydrochloride salt] |  |  |  |  |  | > 1 | < 0.5 |  |  |  |  |  | MIC [1]: < 8 µg/mL; MIC [2]: 8 to 32 µg/mL; MIC [3]: > 32 µg/mL; MIC [4]: < 8 µg/mL; MIC [5]: > 32 µg/mL |
| CC(C)(N)C(=O)N1CCN(C(=O)Nc2ccn(-c3ccc(CNCC4CNC4)cc3)c(=O)n2)CC1 [Compound 374] | 8 to 32 | 8 to 32 |  | < 8 | > 32 |  |  |  |  |  |  |  | Ab + bicarb MIC [3, 10]: + (An MIC value (μg/mL) that is 32 μg/mL or greater); IC50 ([6]; % inhibition @ 1 μM): > 1 µM; IC50 ([7]; % inhibition @ 1 μM): < 0.5 µM |
| CC(C)(N)C(=O)N1CCN(C(=O)Nc2ccn(-c3ccc(CN4CCC(CN)CC4)cc3)c(=O)n2)CC1 [Compound 245] | < 8 | < 8 | > 32 | < 8 | > 32 | > 1 | < 0.5 |  |  |  |  |  |  |
| CCN(Cc1ccc(-n2ccc(NC(=O)N3CCN(C(=O)[C@@H](C)N)CC3)nc2=O)cc1)C1CCC(N)CC1 (stereo partly shown) [Compound 358] | < 8 | 8 to 32 | > 32 | < 8 | > 32 |  |  |  |  |  |  |  | IC50 ([6]; % inhibition @ 1 μM): > 1 µM; IC50 ([7]; % inhibition @ 1 μM): 0.5 to 1 µM |
| CC(C)(N)C(N1CCN(C(=O)Nc2ccn(-c3ccc(CN4CCC(N)CC4)cc3)c(=O)n2)CC1)C(F)(F)F (stereo not shown) [Compound 291, hydrochloride salt] |  |  |  |  |  | > 1 | > 1 |  |  |  |  |  | MIC [1]: < 8 µg/mL; MIC [2]: 8 to 32 µg/mL; MIC [3]: 8 to 32 µg/mL; MIC [4]: 8 to 32 µg/mL; MIC [5]: > 32 µg/mL |
| CC(C)(N)C(=O)N1CCN(C(=O)Nc2ccn(-c3ccc(CCN4CCC(N)CC4)cc3)c(=O)n2)CC1 [Compound 198] | 8 to 32 | 8 to 32 | > 32 | < 8 | > 32 | > 1 | < 0.5 |  |  |  |  |  |  |
| CC(C)(N)C(=O)N1CCN(C(=O)Nc2ccn(-c3ccc(CNCC4CNC4)cc3)c(=O)n2)CC1 [Compound 112] |  |  |  |  |  | > 1 | < 0.5 | 8 to 32 | > 32 | > 32 | 8 to 32 | > 32 |  |
| CC(C)(N)C(=O)N1CCN(C(=O)Nc2ccn(-c3ccc(CCN4CCCC(N)CC4)c(C(F)(F)F)c3)c(=O)n2)CC1 (stereo not shown) [Compound 142] |  |  |  |  |  | > 1 | < 0.5 | < 8 | < 8 | 8 to 32 | < 8 | 8 to 32 |  |
| CC(Cc1ccc(-n2ccc(NC(=O)N3CCN(C(=O)C(C)(C)N)CC3)nc2=O)cc1)N(C)[C@H]1CC[C@H](N)C1 (stereo partly shown) [Compound 163] | 8 to 32 | > 32 | > 32 | 8 to 32 | > 32 | > 1 | > 1 |  |  |  |  |  |  |
| NCC1CN(C(=O)Nc2ccn(-c3ccc(CCN4CCCC(N)CC4)cc3)c(=O)n2)C1 (stereo not shown) [Compound 194] | > 32 | > 32 | > 32 | < 8 | > 32 | > 1 | 0.5 to 1 |  |  |  |  |  |  |
| CC(C)(N)C(=O)N1CCN(C(=O)Nc2ccn(-c3ccc(CN[C@H]4CC[C@H](N)C4)cc3)c(=O)n2)CC1 [Compound 123] |  |  |  |  |  | > 1 | < 0.5 | < 8 | > 32 | > 32 | < 8 | > 32 |  |
| CCC(N)C1CCCN(Cc2ccc(-n3ccc(NC(=O)N4CCN(C(=O)C(C)(C)N)CC4)nc3=O)cc2)C1 (stereo not shown) [Compound 110] |  |  |  |  |  | > 1 | < 0.5 | < 8 | 8 to 32 | > 32 | < 8 | > 32 |  |
| CCN(C(C)Cc1ccc(-n2ccc(NC(=O)N3CCN(C(=O)C(C)(C)N)CC3)nc2=O)cc1)[C@H]1CC[C@@H](N)C1 (stereo partly shown) [Compound 151] |  |  |  |  |  | > 1 | < 0.5 | < 8 | < 8 | > 32 | < 8 | 8 to 32 |  |
| C[C@](N)(CO)C(=O)N1CCN(C(=O)Nc2ccn(-c3ccc(CNC4CCC(N)CC4)cc3)c(=O)n2)CC1 (stereo partly shown) [Compound 288] | < 8 | < 8 | > 32 | < 8 | > 32 | > 1 | < 0.5 |  |  |  |  |  |  |
| C[C@](N)(CO)C(=O)N1CCN(C(=O)Nc2ccn(-c3ccc(CN4CC(CCN)C4)cc3)c(=O)n2)CC1 [Compound 136] |  |  |  |  |  | > 1 | < 0.5 | 8 to 32 | 8 to 32 | > 32 | 8 to 32 | > 32 |  |
| CC(C)(N)C(=O)N1CCN(C(=O)Nc2ccn(-c3ccc(C(N)C(=O)N4CC(N)C4)cc3)c(=O)n2)CC1 (stereo not shown) [Compound 144] |  |  |  |  |  | > 1 | > 1 | > 32 | > 32 | > 32 | > 32 | > 32 |  |
| CC(CN1CC[C@H](CN)C1)Oc1ccc(-n2ccc(NC(=O)N3CCN(C(=O)C(C)(C)N)CC3)nc2=O)cc1 (stereo partly shown) [Compound 184] | < 8 | 8 to 32 | > 32 | < 8 | > 32 | > 1 | < 0.5 |  |  |  |  |  |  |
| CN(Cc1ccc(-n2ccc(NC(=O)N3CCN(C(=O)C(C)(C)N)CC3)nc2=O)cc1)[C@H]1CC[C@@H](N)CC1 [Compound 121] |  |  |  |  |  | > 1 | < 0.5 | < 8 | < 8 | > 32 | < 8 | > 32 |  |
| CC(N)C1CCN(Cc2ccc(-n3ccc(NC(=O)N4CCN(C(=O)C(C)(C)N)CC4)nc3=O)cn2)CC1 (stereo not shown) [Compound 95] |  |  |  |  |  | > 1 | < 0.5 | 8 to 32 | > 32 | > 32 | < 8 | > 32 |  |
| CO[C@H]1C[C@@H](NCc2ccc(-n3ccc(NC(=O)N4CCN(C(=O)C(C)(C)N)CC4)nc3=O)cc2)CC[C@@H]1N [Compound 339, hydrochloride salt] |  |  |  |  |  | > 1 | < 0.5 |  |  |  |  |  | MIC [1]: 8 to 32 µg/mL; MIC [2]: > 32 µg/mL; MIC [3]: > 32 µg/mL; MIC [4]: < 8 µg/mL; MIC [5]: > 32 µg/mL |
| CC(N)C1CCN(Cc2ccc(-n3ccc(NC(=O)N4CCN(C(=O)C(C)(C)N)CC4)nc3=O)cc2)CC1 (stereo not shown) [Compound 299, hydrochloride salt] |  |  |  |  |  | > 1 |  |  |  |  |  |  | Sa + bicarb MIC [1, 8]: +++ (An MIC value (μg/mL) that is less than 8 μg/mL); Ef + bicarb MIC ([2]; E. faecalis, growth medium with sodium bicarbonate, hydrochloride salt): ++ (An MIC value (μg/mL) that is 8 μg/mL or greater and less than 32 μg/mL); Ab + bicarb MIC [3, 10]: + (An MIC value (μg/mL) that is 32 μg/mL or greater); E. coli + bicarb MIC [4, 11]: +++ (An MIC value (μg/mL) that is less than 8 μg/mL); Pa MIC + bicarb [5, 12]: + (An MIC value (μg/mL) that is 32 μg/mL or greater); IC50 ([7]; class by IC50 or % inhibition @ 1 μM, hydrochloride salt): 0.5 to 1 µM |
| CC(C)(N)C(=O)N1CCN(C(=O)Nc2ccn(-c3ccc(CCCN4CC(N)C4)cc3)c(=O)n2)CC1 [Compound 32] |  |  |  |  |  | > 1 | > 1 | 8 to 32 | > 32 | > 32 | 8 to 32 | > 32 |  |
| CC(C)(N)C(=O)N1CCN(C(=O)Nc2ccn(-c3ccc(CN4CC(O)(CN)C4)cc3)c(=O)n2)CC1 [Compound 137] |  |  |  |  |  | > 1 | < 0.5 | 8 to 32 | > 32 | > 32 | < 8 | > 32 |  |
